Values of other authors as cited in patent US20190209701A1, “COMBINATION THERAPY WITH A MEK INHIBITOR, A PD-1 AXIS INHIBITOR, AND A TAXANE” (Genentech, Inc., priority 2016, published 2019).
Like-named read-outs stand apart in the source and are kept apart here.

How the values were obtained:
[1] = system: human tumor xenograft models
[2] = concentration-independent
human tumor cell lines = conditions: through inhibition of MEK1 and MEK2
[3] = system: cancer patients who harbored a BRAF, NRAS, or KRAS mutation
[4] = not given; remark: listed apart in the source
[5] = not given; remark: listed apart in the source

dose linearity of pharmacokinetics (dose range of 0.05 mg/kg (approximately 3.5 mg for 70 kg adult) to 80 mg)	food effect on pharmacokinetics (fed state compared with fasted state, healthy subjects)	mean terminal half-life (t1/2) (oral) [h]	absolute bioavailability (study MEK4952g in healthy subjects, 90% CI: 39.74%, 53.06%) [%]	effect of proton pump inhibitor rabeprazole on pharmacokinetics (with or without high-fat meal vs cobimetinib alone in the fasted state)	binding to plasma proteins [2] [%]	Compound	tumor regression ([1]; dose dependent, highest doses tested, CRC, malignant melanoma, breast carcinoma, lung carcinoma models)	ERK phosphorylation in xenograft tumor models ([1]; xenograft tumor models)	proliferation of a variety of human tumor cell lines (human tumor cell lines)	response of colorectal cancer (CRC) patients ([3]; 14 CRC patients)	unconfirmed tumor responses ([3]; Stage III of Study MEK4592g, 2 patients) [%]	patients with confirmed partial response (PR) ([3]; Study MEK4592g overall, 6 patients, all melanoma) [%]	patients with progressive disease ([3]; Study MEK4592g overall, 40 patients) [%]	exposure of fixed dose 800 mg q2w versus 1200 mg q3w ([4]; 800 mg every two weeks (equivalent to 10 mg/kg q2w) vs Phase III dose of 1200 mg q3w)	dose linearity of pharmacokinetics ([4]; doses ≥1 mg/kg every three weeks (q3w))	Kaplan-Meier estimated overall 24-week progression-free survival (PFS) rate ([5]; Study PCD4989g, 95% CI: 12%, 53%) [%]	anti-tumor activity ([5]; across doses from 1 to 20 mg/kg)
linear pharmacokinetics	not altered	48.8	45.9	minimal effect	95	O=C(c1ccc(F)c(F)c1Nc1ccc(I)cc1F)N1CC(O)([C@@H]2CCCCN2)C1 [Cobimetinib]	up to 100%	inhibits ERK phosphorylation	inhibits proliferation	all patients experienced progressive disease	11.1	6.2	41.2	–	–	–	–
–	–	–	–	–	–	Atezolizumab: anti-PD-L1 antibody, CAS Registry Number: 1422185-06-5	–	–	–	–	–	–	–	equivalent exposure	linear and consistent with typical IgG1 antibodies	33	anti-tumor activity has been observed
